Source: PMC9067983, “Identification of highly selective type II kinase inhibitors with chiral peptidomimetic tails” (Journal of Enzyme Inhibition and Medicinal Chemistry, 2022)
Where a SMILES comes first, the peptide text is derived from it. [ ]: non-standard residue; d: D form. The star is where a group is joined. X1 = Cc1ccc(Nc2ncc3c(n2)N(C)C(=O)N(c2cc(C(=O)*)ccc2C)C3)cn1; Aib = CC(C)(N)C(=O)O

Columns and labels:
Assay in all cases: kinase selectivity profiling
Type in all cases: biochemical
Details in all cases: 10µM ATP, read-out: % inhibition (relative to DMSO)
HIPK1 = molecular target: T1, HIPK1 (Homo sapiens, UniProt Q86Z02)
T1 construct: purchased Reaction Biology Corp
Description: (§1) Full panel kinase profiling and kinase IC50 measurement were performed by using Reaction Biology Corp. (San Diego, USA).

IR = molecular target: T2, IR (Homo sapiens, UniProt P06213)
T2 construct: purchased Reaction Biology Corp
Description: as §1

STK38/NDR1 = molecular target: T3, STK38/NDR1 (Homo sapiens, UniProt Q15208)
T3 construct: purchased Reaction Biology Corp
Description: as §1

TNIK = molecular target: T4, TNIK (Homo sapiens, UniProt Q9UKE5)
T4 construct: purchased Reaction Biology Corp
Description: as §1

FES/FPS = molecular target: T5, FES/FPS (Homo sapiens, UniProt P07332)
T5 construct: purchased Reaction Biology Corp
Description: as §1

GRK3 = molecular target: T6, GRK3 (Homo sapiens, UniProt P35626)
T6 construct: purchased Reaction Biology Corp
Description: as §1

HIPK4 = molecular target: T7, HIPK4 (Homo sapiens, UniProt Q8NE63)
T7 construct: purchased Reaction Biology Corp
Description: as §1

ERBB4/HER4 = molecular target: T8, ERBB4/HER4 (Homo sapiens, UniProt Q15303)
T8 construct: purchased Reaction Biology Corp
Description: as §1

NEK5 = molecular target: T9, NEK5 (Homo sapiens, UniProt Q6P3R8)
T9 construct: purchased Reaction Biology Corp
Description: as §1

Aurora B = molecular target: T10, Aurora B (Homo sapiens, UniProt Q96GD4)
T10 construct: purchased Reaction Biology Corp
Description: as §1

MAPKAPK3 = molecular target: T11, MAPKAPK3 (Homo sapiens, UniProt Q16644)
T11 construct: purchased Reaction Biology Corp
Description: as §1

TYK1/LTK = molecular target: T12, TYK1/LTK (Homo sapiens, UniProt P29376)
T12 construct: purchased Reaction Biology Corp
T12 sequence (P29376 17-864): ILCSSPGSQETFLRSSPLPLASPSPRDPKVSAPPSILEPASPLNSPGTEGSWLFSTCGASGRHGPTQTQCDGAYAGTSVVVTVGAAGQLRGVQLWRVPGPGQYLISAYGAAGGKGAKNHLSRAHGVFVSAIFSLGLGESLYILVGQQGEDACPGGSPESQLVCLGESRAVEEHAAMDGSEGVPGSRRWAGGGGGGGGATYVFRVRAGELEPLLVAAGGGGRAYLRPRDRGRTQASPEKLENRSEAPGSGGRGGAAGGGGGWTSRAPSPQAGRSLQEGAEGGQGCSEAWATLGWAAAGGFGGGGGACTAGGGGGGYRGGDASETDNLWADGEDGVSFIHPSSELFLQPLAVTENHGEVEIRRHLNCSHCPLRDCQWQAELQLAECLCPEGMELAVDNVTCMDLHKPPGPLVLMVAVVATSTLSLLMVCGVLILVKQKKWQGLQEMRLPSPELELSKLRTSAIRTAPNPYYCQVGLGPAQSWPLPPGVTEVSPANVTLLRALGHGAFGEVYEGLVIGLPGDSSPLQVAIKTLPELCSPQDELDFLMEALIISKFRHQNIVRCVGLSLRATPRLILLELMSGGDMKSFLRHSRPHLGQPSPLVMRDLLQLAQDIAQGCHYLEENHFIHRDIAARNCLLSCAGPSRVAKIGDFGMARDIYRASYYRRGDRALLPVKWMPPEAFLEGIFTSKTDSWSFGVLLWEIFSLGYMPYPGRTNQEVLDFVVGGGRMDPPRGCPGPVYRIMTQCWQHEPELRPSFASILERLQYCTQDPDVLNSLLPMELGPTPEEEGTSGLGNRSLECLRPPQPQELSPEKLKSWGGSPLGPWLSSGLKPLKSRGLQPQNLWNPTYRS
Description: as §1

PAK4 = molecular target: T13, PAK4 (Homo sapiens, UniProt O96013)
T13 construct: purchased Reaction Biology Corp
Description: as §1

CDK16/cyclin Y (PCTAIRE) = molecular target: T14, CDK16/cyclin Y (PCTAIRE) (Homo sapiens, UniProt Q00536)
T14 construct: purchased Reaction Biology Corp
Description: as §1

MEK1 = molecular target: T15, MEK1 (Homo sapiens, UniProt Q02750)
T15 construct: purchased Reaction Biology Corp
Description: as §1

BRK = molecular target: T16, BRK (Homo sapiens, UniProt Q13882)
T16 construct: purchased Reaction Biology Corp
Description: as §1

RSK2 = molecular target: T17, RSK2 (Homo sapiens, UniProt P51812)
T17 construct: purchased Reaction Biology Corp
T17 sequence (P51812 whole entry): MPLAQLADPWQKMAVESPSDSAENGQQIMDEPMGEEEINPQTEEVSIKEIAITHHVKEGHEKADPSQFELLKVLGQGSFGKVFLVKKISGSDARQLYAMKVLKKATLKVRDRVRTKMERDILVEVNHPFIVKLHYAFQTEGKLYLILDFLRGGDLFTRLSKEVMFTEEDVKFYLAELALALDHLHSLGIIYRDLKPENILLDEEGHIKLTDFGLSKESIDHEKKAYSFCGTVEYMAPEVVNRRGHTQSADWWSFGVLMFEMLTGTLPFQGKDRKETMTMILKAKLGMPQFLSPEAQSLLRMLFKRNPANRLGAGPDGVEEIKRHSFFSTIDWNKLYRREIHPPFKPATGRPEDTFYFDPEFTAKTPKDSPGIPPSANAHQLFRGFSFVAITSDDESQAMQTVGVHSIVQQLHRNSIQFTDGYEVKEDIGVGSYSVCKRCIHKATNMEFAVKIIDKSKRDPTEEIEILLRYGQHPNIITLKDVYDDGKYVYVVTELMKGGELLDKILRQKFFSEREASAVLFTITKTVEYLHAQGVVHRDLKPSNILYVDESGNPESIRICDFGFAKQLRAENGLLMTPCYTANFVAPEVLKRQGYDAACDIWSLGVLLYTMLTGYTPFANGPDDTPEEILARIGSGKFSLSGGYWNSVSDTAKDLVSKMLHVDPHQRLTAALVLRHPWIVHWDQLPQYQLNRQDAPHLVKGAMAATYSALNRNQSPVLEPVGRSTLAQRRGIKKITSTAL
Description: as §1

KSR1 = molecular target: T18, KSR1 (Homo sapiens, UniProt Q8IVT5)
T18 construct: purchased Reaction Biology Corp
Description: as §1

TSSK2 = molecular target: T19, TSSK2 (Homo sapiens, UniProt Q96PF2)
T19 construct: purchased Reaction Biology Corp
Description: as §1

ZIPK/DAPK3 = molecular target: T20, ZIPK/DAPK3 (Homo sapiens, UniProt O43293)
T20 construct: purchased Reaction Biology Corp
Description: as §1

FMS = molecular target: T21, FMS (Homo sapiens, UniProt P07333)
T21 construct: purchased Reaction Biology Corp
T21 sequence (P07333 20-972): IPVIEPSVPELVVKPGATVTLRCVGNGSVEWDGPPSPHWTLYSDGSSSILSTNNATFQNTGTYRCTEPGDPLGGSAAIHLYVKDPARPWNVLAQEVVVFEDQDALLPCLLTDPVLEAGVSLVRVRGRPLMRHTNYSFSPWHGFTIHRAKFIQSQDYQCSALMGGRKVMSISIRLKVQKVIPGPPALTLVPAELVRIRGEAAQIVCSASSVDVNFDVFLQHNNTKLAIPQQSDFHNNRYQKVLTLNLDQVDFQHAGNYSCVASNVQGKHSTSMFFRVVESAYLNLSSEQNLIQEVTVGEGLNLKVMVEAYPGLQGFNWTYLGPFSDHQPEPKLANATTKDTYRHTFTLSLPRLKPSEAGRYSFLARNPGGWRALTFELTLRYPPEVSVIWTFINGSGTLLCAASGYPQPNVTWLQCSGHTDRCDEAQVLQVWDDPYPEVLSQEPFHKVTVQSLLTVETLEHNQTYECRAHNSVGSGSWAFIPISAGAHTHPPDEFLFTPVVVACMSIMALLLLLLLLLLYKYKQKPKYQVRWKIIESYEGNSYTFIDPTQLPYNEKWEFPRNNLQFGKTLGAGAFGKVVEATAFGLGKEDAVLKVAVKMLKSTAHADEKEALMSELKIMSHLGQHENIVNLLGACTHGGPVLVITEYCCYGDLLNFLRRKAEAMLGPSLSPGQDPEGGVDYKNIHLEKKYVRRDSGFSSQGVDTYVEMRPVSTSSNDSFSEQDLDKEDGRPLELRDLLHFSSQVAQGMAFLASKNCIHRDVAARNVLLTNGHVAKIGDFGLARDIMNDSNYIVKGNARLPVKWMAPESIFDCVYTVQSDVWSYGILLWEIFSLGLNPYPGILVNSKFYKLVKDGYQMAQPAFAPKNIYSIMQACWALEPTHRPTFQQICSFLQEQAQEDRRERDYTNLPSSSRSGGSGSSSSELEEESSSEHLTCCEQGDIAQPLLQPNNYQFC
Description: as §1

MLK3/MAP3K11 = molecular target: T22, MLK3/MAP3K11 (Homo sapiens, UniProt Q16584)
T22 construct: purchased Reaction Biology Corp
Description: as §1

PDK1/PDPK1 = molecular target: T23, PDK1/PDPK1 (Homo sapiens, UniProt O15530)
T23 construct: purchased Reaction Biology Corp
Description: as §1

BRSK2 = molecular target: T24, BRSK2 (Homo sapiens, UniProt Q8IWQ3)
T24 construct: purchased Reaction Biology Corp
Description: as §1

TYK2 = molecular target: T25, TYK2 (Homo sapiens, UniProt P29597)
T25 construct: purchased Reaction Biology Corp
Description: as §1

RET = molecular target: T26, RET (Homo sapiens, UniProt P07949)
T26 construct: purchased Reaction Biology Corp
T26 sequence (P07949 29-1114): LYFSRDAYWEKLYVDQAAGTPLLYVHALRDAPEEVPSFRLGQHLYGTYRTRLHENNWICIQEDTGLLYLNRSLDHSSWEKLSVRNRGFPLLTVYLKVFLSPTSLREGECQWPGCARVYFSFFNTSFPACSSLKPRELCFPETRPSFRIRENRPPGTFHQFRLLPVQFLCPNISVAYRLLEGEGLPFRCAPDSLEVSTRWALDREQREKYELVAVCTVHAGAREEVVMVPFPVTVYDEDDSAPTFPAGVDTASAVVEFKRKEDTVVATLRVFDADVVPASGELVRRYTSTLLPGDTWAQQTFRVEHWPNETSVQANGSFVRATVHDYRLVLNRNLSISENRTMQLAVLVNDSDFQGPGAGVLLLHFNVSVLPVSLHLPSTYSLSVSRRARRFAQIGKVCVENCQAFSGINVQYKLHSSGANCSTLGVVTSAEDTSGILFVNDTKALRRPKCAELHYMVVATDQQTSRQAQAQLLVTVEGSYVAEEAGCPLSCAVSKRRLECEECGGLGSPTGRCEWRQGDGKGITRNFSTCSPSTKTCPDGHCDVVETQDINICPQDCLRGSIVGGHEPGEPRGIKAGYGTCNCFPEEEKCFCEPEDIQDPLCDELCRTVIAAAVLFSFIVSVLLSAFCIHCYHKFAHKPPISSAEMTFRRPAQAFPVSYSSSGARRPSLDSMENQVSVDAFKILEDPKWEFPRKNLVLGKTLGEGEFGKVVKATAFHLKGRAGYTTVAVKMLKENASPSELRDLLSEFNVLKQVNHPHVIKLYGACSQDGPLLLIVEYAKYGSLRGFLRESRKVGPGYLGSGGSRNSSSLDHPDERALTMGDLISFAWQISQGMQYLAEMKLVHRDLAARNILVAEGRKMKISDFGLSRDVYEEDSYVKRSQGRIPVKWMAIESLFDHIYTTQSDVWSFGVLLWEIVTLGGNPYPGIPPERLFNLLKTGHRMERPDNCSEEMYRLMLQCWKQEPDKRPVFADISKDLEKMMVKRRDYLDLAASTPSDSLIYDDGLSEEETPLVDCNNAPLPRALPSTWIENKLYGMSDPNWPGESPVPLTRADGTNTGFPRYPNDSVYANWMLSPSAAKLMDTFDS
Description: as §1

SRMS = molecular target: T27, SRMS (Homo sapiens, UniProt Q9H3Y6)
T27 construct: purchased Reaction Biology Corp
Description: as §1

TLK1 = molecular target: T28, TLK1 (Homo sapiens, UniProt Q9UKI8)
T28 construct: purchased Reaction Biology Corp
Description: as §1

CK1g2 = molecular target: T29, CK1g2 (Homo sapiens, UniProt P78368)
T29 construct: purchased Reaction Biology Corp
Description: as §1

STK22D/TSSK1 = molecular target: T30, STK22D/TSSK1 (Homo sapiens, UniProt Q9BXA7)
T30 construct: purchased Reaction Biology Corp
T30 sequence (Q9BXA7 whole entry): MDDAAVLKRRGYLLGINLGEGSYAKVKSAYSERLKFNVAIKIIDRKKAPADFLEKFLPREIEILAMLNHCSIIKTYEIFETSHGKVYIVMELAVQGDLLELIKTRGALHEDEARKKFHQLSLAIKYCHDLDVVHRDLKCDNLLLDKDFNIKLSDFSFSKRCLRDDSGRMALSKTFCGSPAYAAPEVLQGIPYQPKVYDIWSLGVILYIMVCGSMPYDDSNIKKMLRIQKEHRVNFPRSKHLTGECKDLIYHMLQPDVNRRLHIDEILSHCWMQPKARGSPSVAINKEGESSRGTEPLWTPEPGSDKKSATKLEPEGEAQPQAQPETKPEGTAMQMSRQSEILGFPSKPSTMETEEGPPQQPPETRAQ
Description: as §1

Fgr = molecular target: T31, Fgr (Homo sapiens, UniProt P09769)
T31 construct: purchased Reaction Biology Corp
Description: as §1

ERK2/MAPK1 = molecular target: T32, ERK2/MAPK1 (Homo sapiens, UniProt P28482)
T32 construct: purchased Reaction Biology Corp
T32 sequence (P28482 whole entry): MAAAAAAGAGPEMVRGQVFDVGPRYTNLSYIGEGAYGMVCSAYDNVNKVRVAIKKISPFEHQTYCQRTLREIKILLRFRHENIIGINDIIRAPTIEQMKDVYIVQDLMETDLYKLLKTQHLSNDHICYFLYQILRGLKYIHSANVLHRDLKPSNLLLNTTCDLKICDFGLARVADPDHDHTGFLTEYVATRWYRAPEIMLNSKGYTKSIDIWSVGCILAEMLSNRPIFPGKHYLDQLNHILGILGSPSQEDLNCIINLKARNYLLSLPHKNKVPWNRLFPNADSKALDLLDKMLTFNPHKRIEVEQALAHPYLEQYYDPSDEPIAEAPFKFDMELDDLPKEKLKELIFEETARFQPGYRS
Description: as §1

MARK4 = molecular target: T33, MARK4 (Homo sapiens, UniProt Q96L34)
T33 construct: purchased Reaction Biology Corp
Description: as §1

ALK4/ACVR1B = molecular target: T34, ALK4/ACVR1B (Homo sapiens, UniProt P36896)
T34 construct: purchased Reaction Biology Corp
Description: as §1

NEK2 = molecular target: T35, NEK2 (Homo sapiens, UniProt P51955)
T35 construct: purchased Reaction Biology Corp
Description: as §1

PAK3 = molecular target: T36, PAK3 (Homo sapiens, UniProt O75914)
T36 construct: purchased Reaction Biology Corp
Description: as §1

P38d/MAPK13 = molecular target: T37, P38d/MAPK13 (Homo sapiens, UniProt O15264)
T37 construct: purchased Reaction Biology Corp
Description: as §1

CAMK1g = molecular target: T38, CAMK1g (Homo sapiens, UniProt Q96NX5)
T38 construct: purchased Reaction Biology Corp
Description: as §1

PIM1 = molecular target: T39, PIM1 (Homo sapiens, UniProt P11309)
T39 construct: purchased Reaction Biology Corp
Description: as §1

CDK2/cyclin O = molecular target: T40, CDK2/cyclin O (Homo sapiens, UniProt P24941)
T40 construct: purchased Reaction Biology Corp
Description: as §1

PKCa = molecular target: T41, PKCa (Homo sapiens, UniProt P17252)
T41 construct: purchased Reaction Biology Corp
Description: as §1

ARK5/NUAK1 = molecular target: T42, ARK5/NUAK1 (Homo sapiens, UniProt O60285)
T42 construct: purchased Reaction Biology Corp
T42 sequence (O60285 whole entry): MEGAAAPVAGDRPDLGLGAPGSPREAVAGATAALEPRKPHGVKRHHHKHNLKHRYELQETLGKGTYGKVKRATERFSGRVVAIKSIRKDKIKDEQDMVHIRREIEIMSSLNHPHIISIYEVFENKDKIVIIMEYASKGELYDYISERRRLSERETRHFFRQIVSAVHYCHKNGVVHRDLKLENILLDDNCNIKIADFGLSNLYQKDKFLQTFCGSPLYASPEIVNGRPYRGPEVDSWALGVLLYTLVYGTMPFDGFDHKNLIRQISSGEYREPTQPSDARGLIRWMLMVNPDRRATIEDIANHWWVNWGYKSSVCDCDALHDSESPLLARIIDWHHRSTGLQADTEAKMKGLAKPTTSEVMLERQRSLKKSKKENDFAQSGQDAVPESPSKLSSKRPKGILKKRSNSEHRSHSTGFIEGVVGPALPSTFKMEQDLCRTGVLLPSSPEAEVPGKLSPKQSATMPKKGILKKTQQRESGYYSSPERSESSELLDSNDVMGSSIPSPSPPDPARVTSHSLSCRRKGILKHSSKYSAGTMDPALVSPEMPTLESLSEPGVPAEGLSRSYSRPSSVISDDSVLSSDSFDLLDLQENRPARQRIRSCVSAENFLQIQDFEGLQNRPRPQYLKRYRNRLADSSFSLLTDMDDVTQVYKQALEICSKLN
Description: as §1

HIPK2 = molecular target: T43, HIPK2 (Homo sapiens, UniProt Q9H2X6)
T43 construct: purchased Reaction Biology Corp
Description: as §1

Cc1ccc(Nc2ncc3c(n2)N(C)C(=O)N(c2cc(C(=O)N[C@H](C(=O)N4CCC[C@H]4C(=O)NC(C)(C)C(=O)N[C@@H](CC(C)C)C(=O)N(C)C)C(C)C)ccc2C)C3)cn1 [7a, (S)-N-(1-(((S)-1-(dimethylamino)-4-methyl-1-oxopentan-2-yl)amino)-2-methyl-1-oxopropan-2-yl)-1-((4-methyl-3-(1-methyl-7-((6-methylpyridin-3-yl)amino)-2-oxo-1,4-dihydropyrimido[4,5-d]pyrimidin-3(2H)-yl)benzoyl)-L-valyl)pyrrolidine-2-carboxamide] (X1-VP[Aib]L-NMe2)
inhibition at 1 µM (HIPK1): 0% | inhibition at 1 µM (IR): 0% | inhibition at 1 µM (STK38/NDR1): 0% | inhibition at 1 µM (TNIK): 6% | inhibition at 1 µM (FES/FPS): 18% | inhibition at 1 µM (GRK3): 0% | inhibition at 1 µM (HIPK4): 1% | inhibition at 1 µM (ERBB4/HER4): 53% | inhibition at 1 µM (NEK5): 0% | inhibition at 1 µM (Aurora B): 6% | inhibition at 1 µM (MAPKAPK3): 2% | inhibition at 1 µM (TYK1/LTK): 0% | inhibition at 1 µM (PAK4): 0% | inhibition at 1 µM (CDK16/cyclin Y (PCTAIRE)): 6% | inhibition at 1 µM (MEK1): 8% | inhibition at 1 µM (BRK): 0% | inhibition at 1 µM (RSK2): 0% | inhibition at 1 µM (KSR1): 2% | inhibition at 1 µM (TSSK2): 0% | inhibition at 1 µM (ZIPK/DAPK3): 6% | inhibition at 1 µM (FMS): 60% | inhibition at 1 µM (MLK3/MAP3K11): 34% | inhibition at 1 µM (PDK1/PDPK1): 1% | inhibition at 1 µM (BRSK2): 8% | inhibition at 1 µM (TYK2): 1% | inhibition at 1 µM (RET): 9% | inhibition at 1 µM (SRMS): 4% | inhibition at 1 µM (TLK1): 0% | inhibition at 1 µM (CK1g2): 2% | inhibition at 1 µM (STK22D/TSSK1): 6% | inhibition at 1 µM (Fgr): 80% | inhibition at 1 µM (ERK2/MAPK1): 0% | inhibition at 1 µM (MARK4): 0% | inhibition at 1 µM (ALK4/ACVR1B): 0% | inhibition at 1 µM (NEK2): 0% | inhibition at 1 µM (PAK3): 0% | inhibition at 1 µM (P38d/MAPK13): 0% | inhibition at 1 µM (CAMK1g): 7% | inhibition at 1 µM (PIM1): 2% | inhibition at 1 µM (CDK2/cyclin O): 0% | inhibition at 1 µM (PKCa): 0% | inhibition at 1 µM (ARK5/NUAK1): 9% | inhibition at 1 µM (HIPK2): 0%
